Series [1] in a line: Pharmacokinetics of 047 and 016 after single oral 047 in mice. The settings on record: analyte after single PO 047 75 mg/kg, male C57BL/6 mice.
Description: Total twelve male mice were used in this study. Animals were administered through oral route with solution formulation of 047 at 75 mg/kg dose. The formulation vehicle used was normal saline. Blood samples (approximately 60 μL) were collected under light isoflurane anesthesia from a set of two mice at 0.25, 0.5, 1, 2, 4 and 8 h. The blood samples were collected at each time point in labeled micro centrifuge tube containing K2EDTA as anticoagulant and PMSF (100 mM; 10 μL/mL of blood) as a stabilizer. Plasma samples were separated by centrifugation of whole blood and stored below −70° C. until bioanalysis. Following blood collection, immediately animals were sacrificed followed by abdominal vena-cava was cut open and whole body was perfused from heart using 10 mL of normal saline. Brain samples were collected from set of two mice at 0.25, 0.5, 1, 2, 4 and 8 h. After isolation, brain samples were rinsed three times in ice cold normal saline (for 5-10 seconds/rinse using ˜10-20 mL normal saline in disposable petri dish for each rinse) and dried on blotting paper. Brain samples were homogenized using ice-cold phosphate buffer saline (pH-7.4) and PMSF (100 mM; 10 μL/mL of blood) as a stabilizer. Brain homogenates were stored below −70±10° C. until analysis. Total homogenate volume was three times of the brain weight.
Plasma and brain samples were quantified by fit-for-purpose LC-MS/MS method.
The format of series [2] is physicochemical. The settings on record: for Conversion (%) / Notes (stability): 0.5 mM. The method, then:
The hydrolysis kinetics was under a certain temperature and measured by LCMS at a certain time interval. The corresponding LCMS chromatograms were recorded and the conversions were calculated. The hydrolysis conditions and the data were summarized in below table. LCMS spectra were obtained using Agilent 1200\G1956A or SHIMADZU LCMS-2020. Standard LCMS conditions were as follows (running time 1.55 minutes):
Acidic condition: Mobile Phase A: 0.0375% TFA in water (v/v). Mobile Phase B: 0.01875% TFA in acetonitrile (v/v); Column: Kinetex EVO C18 30*2.1 mm, 5 μm.
Basic condition: Mobile Phase A: 0.025% NH3·H2O in water (v/v). Mobile Phase B: Acetonitrile; Column: Kinetex EVO C18 2.1×30 mm, 5 μm.
Conversion (%)=peak area 1/(peak area 1+peak area 2)*100%, peak area 1 is the integration of hydrolyzed product, peak area 2 is the integration of starting material.

Another series concerns the target T1, SERT (Homo sapiens, UniProt P31645).
T1 construct: expressed in transfected cells
Kind of series: SERT inhibition, Neurotransmitter Transportation Fluorescence assay. The series is classed as cell-based. The settings on record: 30 minutes at 37° C. As to the method:
SERT inhibition was measured using a Neruotransmitter Transportation Fluorescence assay. […] Compounds were prepared by in assay buffer (20 mM HEPES, 0.1% BSA). The compounds were added to the plated cells and incubated for 30 minutes at 37° C. 25 μL of dye solution (Molecular Devices Neurotransmitter Transporter Uptake Assay Kit) was added per well and incubated for 30 minutes at 37° C. The plates were then read on a plate reader.

The mark [3] stands for this setting: pH = 7.4, 25° C., PBS (20 mM), 0-24 h.
Setting [4] is: pH = 2.0, 25° C., 0.01M HCl, 0-24 h.
The mark [5] stands for this setting: pH = 2.0, 37° C., 0.01M HCl, 0-24 h.

Molecules are shown by their SMILES. Read-outs that look alike come from different tables or passages of the source.

T1 sequence (P31645 whole entry, species assumed): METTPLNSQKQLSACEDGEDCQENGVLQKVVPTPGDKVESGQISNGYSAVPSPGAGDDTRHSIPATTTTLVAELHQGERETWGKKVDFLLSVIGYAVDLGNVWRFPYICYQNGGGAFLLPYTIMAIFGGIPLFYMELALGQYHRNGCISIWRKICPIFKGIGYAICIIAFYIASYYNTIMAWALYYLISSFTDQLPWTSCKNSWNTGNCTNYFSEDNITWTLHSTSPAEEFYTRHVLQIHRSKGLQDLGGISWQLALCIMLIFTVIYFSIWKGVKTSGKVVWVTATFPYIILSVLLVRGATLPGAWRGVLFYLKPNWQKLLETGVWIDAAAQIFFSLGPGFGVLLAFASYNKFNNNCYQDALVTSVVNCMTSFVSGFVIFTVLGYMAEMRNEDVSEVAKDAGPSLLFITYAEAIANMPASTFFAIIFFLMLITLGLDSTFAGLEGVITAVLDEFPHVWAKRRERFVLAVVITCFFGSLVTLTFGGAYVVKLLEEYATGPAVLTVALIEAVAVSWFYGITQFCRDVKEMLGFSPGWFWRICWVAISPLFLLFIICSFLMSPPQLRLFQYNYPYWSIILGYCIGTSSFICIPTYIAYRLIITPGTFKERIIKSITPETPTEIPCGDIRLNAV

Turning to `COc1ccc(C23C=CC(=O)CC2N(C)CC3)cc1OC` (racemic) [Compound 016, 3a-(3,4-dimethoxyphenyl)-1-methyl-2,3,7,7a-tetrahydroindol-6-one, reference compound], the “Brain concentrations quantifiable up to” value in series [1] is “up to 4 h”. In addition, in series [2] (pH 2.0 in 0.01 M HCl to pH 7.4 in 20 mM PBS, 25° C. to 40° C.), the “further hydrolysis (in words)” value is “did not further hydrolyze”. In addition, in series [2] (setting [3]), the “Conversion (%)” value came to 0% and the “Notes (stability)” value was “Stable”.

With `COc1ccc([C@@]23C=CC4(C[C@@H]2N(C)CC3)SCCS4)cc1OC` (stereo in doubt) [Compound 017, 3′a-(3,4-dimethoxyphenyl)-1′-methyl-spiro[1,3-dithiolane-2,6′-2,3,7,7a-tetrahydroindole]], in series [2] (setting [4]), the “Conversion (%)” value came to 0% and the “Notes (stability)” value was “Stable”. For the same compound, in series [2] (setting [5]), the “Conversion (%)” value is listed as 0% and the “Notes (stability)” value is “Stable”.

`COc1ccc(C23C=CC4(CC2N(C)CC3)OCCO4)cc1OC` (stereo not drawn) [Compound 015, (3′aR,7′aS)-3′a-(3,4-dimethoxyphenyl)-1′-methyl-spiro[1,3-dioxolane-2,6′-2,3,7,7a-tetrahydroindole]]: the “conversion to mesembrenone (in words)” value in series [2] (pH 2) is given as “converted to mesembrenone”.

Regarding `COc1ccc([C@@]23C=CC4(C[C@@H]2N(C)CC3)OCCO4)cc1OC` [Compound 015, (3′aR,7′aS)-3′a-(3,4-dimethoxyphenyl)-1′-methyl-spiro[1,3-dioxolane-2,6′-2,3,7,7a-tetrahydroindole]], the “Conversion (%)” value stood at 19% in series [2] (pH = 2.0, 25° C., 0.01M HCl, 1 min); 46% in series [2] (pH = 2.0, 25° C., 0.01M HCl, 10 min); 66% in series [2] (pH = 2.0, 25° C., 0.01M HCl, 30 min); 99% in series [2] (pH = 2.0, 25° C., 0.01M HCl, 120 min).

On to `COc1ccc([C@@]23C=CC4(C[C@@H]2N(C)CC3)OCCO4)cc1OC` [Compound 047, (3′aR,7′aS)-3′a-(3,4-dimethoxyphenyl)-1′-methyl-spiro[1,3-dioxolane-2,6′-2,3,7,7a-tetrahydroindole]], for which, in series [1], the “Brain concentrations quantifiable up to” value is on record as “up to 4 h”. This compound showed an IC50 against SERT of 581 nM.

Take `COc1ccc([C@]23C=CC4(C[C@H]2N(C)CC3)OCCO4)cc1OC` [Compound 048, (3′aS,7′aR)-3′a-(3,4-dimethoxyphenyl)-1′-methyl-spiro[1,3-dioxolane-2,6′-2,3,7,7a-tetrahydroindole]]: the IC50 against SERT was 939 nM.

For `COc1ccc([C@@]23C=CC4(C[C@@H]2N(C)CC3)SCCS4)cc1OC` [Compound 049, (3′aR,7′aS)-3′a-(3,4-dimethoxyphenyl)-1′-methyl-spiro[1,3-dithiolane-2,6′-2,3,7,7a-tetrahydroindole]], it took 159 nM to reach half-maximal inhibition at SERT (IC50).

Take `COc1ccc([C@]23C=CC4(C[C@H]2N(C)CC3)SCCS4)cc1OC` [Compound 050, (3′aS,7′aR)-3′a-(3,4-dimethoxyphenyl)-1′-methyl-spiro[1,3-dithiolane-2,6′-2,3,7,7a-tetrahydroindole]]: the half-maximal inhibitory concentration (IC50) on SERT stood at 405 nM.

For the origin of these results see patent US20260152509A1, “DELIVERY OF THERAPEUTIC ALKALOID COMPOUNDS” (priority 2021, published 2026).
